The values below come from ChEMBL document CHEMBL6114998, “Design, Synthesis, and Pharmacological Evaluation of Quinazoline and Quinoline Derivatives as Potent ENPP1 Inhibitors for Cancer Immunotherapy” (J Med Chem, 2025).

The pIC50 is the negative decadic logarithm of the IC50, by convention in mol/L. A word on the half-life: it is how long it takes for the measured level to halve. Low readings indicate fast loss, high ones slow loss. Broadly, the MRT last is the average time that molecules of a dose stay in the body. A word on the Papp B→A: it is the apparent permeability from the basolateral to the apical side of a cell layer.

pIC50: −log10 of the molar value. Activity calls are given as the source filed them. No cut-off for these calls is given here. Bounds are passed on as bounds.

Series [1] is described as follows: Toxicity in female BALB/c mouse allografted with mouse CT26 cells assessed as change in body weight at 200 mg/kg QD, ip measured every 2 days for 12 days. In kind it is organism-based. Particulars: in vivo, 288 h, time 12 day.
Series [2] concerns the target Voltage-gated inwardly rectifying potassium channel KCNH2 (Homo sapiens, UniProt Q12809). Kind of series: Inhibition of hERG expressed in CHO cells by QPatch automated patch-clamp assay. The series is classed as toxicity, cell-based. A general note: hERG is a cardiac potassium channel; its block is linked to QT prolongation.
Series [3] is described as follows: Half life in Sprague-Dawley rat at 10 mg/kg, iv measured upto 24 hrs by LC-MS/MS analysis. The series is classed as ADME, organism-based. The note with it: in vivo.
For series [4], the system named is CT26. As to the kind of experiment: Antitumor activity against mouse CT26 cells allografted in female BALB/c mouse assessed as increase in M1-type macrophages in tumor tissue at 200 mg/kg QD, ip measured every 2 days for 12 days by immunofluorescence analysis. The series is classed as functional, organism-based. Particulars: time 12.0 day.
Series [5] in a line: MRT (0 to t) in Sprague-Dawley rat at 10 mg/kg, iv measured upto 24 hrs by LC-MS/MS analysis. In kind it is ADME, organism-based. The note with it: in vivo.
For series [6], the system named is CT26. As to the kind of experiment: Antitumor activity against mouse CT26 cells allografted in female BALB/c mouse assessed as decrease in M2-type macrophages in tumor tissue at 200 mg/kg QD, ip in presence of anti-PD-L1 antibody measured every 2 days for 12 days by immunofluorescence analysis. The series is classed as functional, organism-based. Particulars: time 12.0 day.

The subject of series [7] is THP1-Dual. As to the kind of experiment: Activation of STING-mediated immune response in human THP1-Dual cells assessed as increase in cGAMP-induced ISRE activation preincubated in conditioned medium containing 36 hrs compound treated with human MDA-MB-231 cells measured after 24 hrs by quanti-luc luciferase assay. The series is classed as cell-based. Particulars: filed as activator, time 60.0 hrs.

Series [8] relates to CT26. Kind of series: Antitumor activity against mouse CT26 cells allografted in female BALB/c mouse assessed as increase in infiltration of CD8+T cells in tumor tissue at 200 mg/kg QD, ip in presence of anti-PD-L1 antibody measured every 2 days for 12 days by immunohistochemical analysis. In kind it is functional, organism-based. The note with it: time 12.0 day.
The subject of series [9] is CT26. As to the kind of experiment: Antitumor activity against mouse CT26 cells allografted in female BALB/c mouse assessed as increase in M1-type macrophages in tumor tissue at 200 mg/kg QD, ip in presence of anti-PD-L1 antibody measured every 2 days for 12 days by immunofluorescence analysis. The note with it: time 12.0 day. In kind it is functional, organism-based.

The test system of series [10] is CT26. Kind of series: Antitumor activity against mouse CT26 cells allografted in female BALB/c mouse assessed as increase in infiltration of CD8+T cells in tumor tissue at 200 mg/kg QD, ip measured every 2 days for 12 days by immunohistochemical analysis. The series is classed as functional, organism-based. Particulars: time 12.0 day.
Series [11] can be described thus: Apparent permeability across basal to apical side in human Caco-2 cells at 10 uM by LC-MS/MS analysis. The series is classed as ADME, cell-based. A general note: Passage across Caco-2 layers is used to estimate intestinal permeability.
Series [12] relates to THP-1. As to the kind of experiment: Activation of STING signalling pathway in human THP-1 cells assessed as increase in IRF3 phosphorylation at 300 nM preincubated with compound for 2 hrs followed by cGAMP addition and measured after 3 hrs by Western blot analysis. In kind it is cell-based. Particulars: filed as activator, time 5.0 hrs. (In western blotting, separated proteins are transferred to a membrane and probed.)

Series [13] relates to CT26. Kind of series: Antitumor activity against mouse CT26 cells allografted in female BALB/c mouse assessed as increase in CD8+T cells in tumor tissue at 200 mg/kg QD, ip measured every 2 days for 12 days by immunofluorescence analysis. The note with it: time 12.0 day. In kind it is functional, organism-based.
In series [14] the test system is THP-1. Kind of series: Activation of STING signalling pathway in human THP-1 cells assessed as increase in IFNB1 expression measured after 18 hrs in presence of cGAMP by qPCR analysis. Particulars: filed as activator, dose 3-1000 nM. The series is classed as cell-based.
Series [15] deals with T1, Ectonucleotide pyrophosphatase/phosphodiesterase family member 1 (Homo sapiens, UniProt P22413).
T1 sequence (P22413 whole entry): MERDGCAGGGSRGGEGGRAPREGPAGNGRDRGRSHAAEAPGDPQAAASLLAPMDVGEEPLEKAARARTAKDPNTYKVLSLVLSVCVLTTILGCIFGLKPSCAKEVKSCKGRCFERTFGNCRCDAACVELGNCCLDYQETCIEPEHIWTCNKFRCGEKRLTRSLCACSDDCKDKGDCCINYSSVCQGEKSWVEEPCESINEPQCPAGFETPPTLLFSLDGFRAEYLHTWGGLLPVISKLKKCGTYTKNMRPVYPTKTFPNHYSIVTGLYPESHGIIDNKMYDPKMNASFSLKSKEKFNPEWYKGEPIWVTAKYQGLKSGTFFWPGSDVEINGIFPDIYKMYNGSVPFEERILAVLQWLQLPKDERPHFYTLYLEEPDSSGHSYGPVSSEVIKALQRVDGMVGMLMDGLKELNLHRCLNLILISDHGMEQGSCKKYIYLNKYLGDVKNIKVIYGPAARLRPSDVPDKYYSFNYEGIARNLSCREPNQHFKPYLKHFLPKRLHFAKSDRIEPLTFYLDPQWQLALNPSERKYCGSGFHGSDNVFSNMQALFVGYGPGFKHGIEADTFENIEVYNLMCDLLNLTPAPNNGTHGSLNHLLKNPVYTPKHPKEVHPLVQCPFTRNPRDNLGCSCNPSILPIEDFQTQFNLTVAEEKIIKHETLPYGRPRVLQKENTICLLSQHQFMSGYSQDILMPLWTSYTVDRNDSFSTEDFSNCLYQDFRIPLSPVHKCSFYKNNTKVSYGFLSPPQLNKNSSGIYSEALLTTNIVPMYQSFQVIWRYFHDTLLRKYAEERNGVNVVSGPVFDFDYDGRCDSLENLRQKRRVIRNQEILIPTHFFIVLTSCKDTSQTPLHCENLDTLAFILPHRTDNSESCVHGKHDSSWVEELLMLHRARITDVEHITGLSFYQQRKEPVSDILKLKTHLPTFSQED
As to the kind of experiment: Inhibition of recombinant human ENPP1 transfected in HEK293T cells using cGAMP as substrate at pH 7.5 measured after 3.5 hrs by luminescence based AMP-glo assay. In kind it is cell-based.

Series [16] is described as follows: Inhibition of TK (unknown origin) at 1 uM by KINOMEscan assay. Particulars: Homo sapiens.
The subject of series [17] is THP1-Dual. Kind of series: Cytotoxicity against human THP1-Dual cells assessed as effect on cell viability at 3 to 1000 nM followed by addition of conditioned medium containing 36 hrs compound pretreated human MDA-MB-231 cells measured after 24 hrs by celltiter-glo assay. The series is classed as functional, cell-based. The note with it: dose 3-1000 nM, time 60.0 hrs.

Chain of Voltage-gated inwardly rectifying potassium channel KCNH2 (Q12809 whole entry): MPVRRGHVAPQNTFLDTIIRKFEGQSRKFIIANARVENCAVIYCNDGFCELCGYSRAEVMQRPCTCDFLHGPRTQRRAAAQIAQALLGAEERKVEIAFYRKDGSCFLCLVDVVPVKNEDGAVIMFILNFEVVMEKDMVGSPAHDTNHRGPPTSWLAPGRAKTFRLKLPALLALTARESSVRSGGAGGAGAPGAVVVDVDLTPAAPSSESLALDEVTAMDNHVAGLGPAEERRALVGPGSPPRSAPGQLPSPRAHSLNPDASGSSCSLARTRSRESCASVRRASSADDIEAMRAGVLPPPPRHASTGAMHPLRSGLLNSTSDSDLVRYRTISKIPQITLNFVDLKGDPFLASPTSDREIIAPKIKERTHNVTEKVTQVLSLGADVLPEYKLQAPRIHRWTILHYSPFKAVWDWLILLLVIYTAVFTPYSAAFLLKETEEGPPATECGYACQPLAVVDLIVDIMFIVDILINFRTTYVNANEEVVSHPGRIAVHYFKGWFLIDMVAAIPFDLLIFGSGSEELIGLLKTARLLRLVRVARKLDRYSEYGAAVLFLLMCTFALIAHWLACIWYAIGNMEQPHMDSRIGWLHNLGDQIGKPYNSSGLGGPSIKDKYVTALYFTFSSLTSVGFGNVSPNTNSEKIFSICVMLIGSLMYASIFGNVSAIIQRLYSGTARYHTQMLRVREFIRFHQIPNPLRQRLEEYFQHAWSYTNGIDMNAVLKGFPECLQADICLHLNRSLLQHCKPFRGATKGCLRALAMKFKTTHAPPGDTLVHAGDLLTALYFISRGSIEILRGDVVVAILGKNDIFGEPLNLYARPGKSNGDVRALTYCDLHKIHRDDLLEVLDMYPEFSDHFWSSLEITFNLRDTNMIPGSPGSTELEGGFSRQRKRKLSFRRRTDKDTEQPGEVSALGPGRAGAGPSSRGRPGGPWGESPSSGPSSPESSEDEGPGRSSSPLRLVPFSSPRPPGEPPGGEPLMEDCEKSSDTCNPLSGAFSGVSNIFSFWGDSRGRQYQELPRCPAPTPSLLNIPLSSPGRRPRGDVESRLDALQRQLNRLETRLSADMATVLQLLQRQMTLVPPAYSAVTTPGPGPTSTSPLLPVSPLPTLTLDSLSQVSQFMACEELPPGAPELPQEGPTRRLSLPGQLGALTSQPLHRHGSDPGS

On to `COc1cccc2c(N3CCC(O)(CNS(N)(=O)=O)CC3)ncnc12`, for which the Activity result in series [1] is “Non-toxic”; in series [7], “Dose-dependent-effect”; in series [14], “Dose-dependent-effect”. Also, the pIC50 was less than 4.40 in series [2] and 8.09 in [15]. For the same compound, the half-life in series [3] was 46.7 min. Besides, the outcome in series [4], in series [6], in series [8], in series [9], in series [10] and in [12] was Active. Further, the result in series [13] and in series [17] was Active. This compound also came in with a mean residence time (MRT last) at 24 h in [5] of 39.7 min. Further, the basolateral-to-apical permeability (Papp B→A) at 10 µM in series [11] worked out at 2.13 ×10⁻⁶ cm/s. Further, the inhibition entry in [16] was “inactive”.
